Results taken from US20220073557A1, “FLUORINATED BILE ACIDS” (NZP UK LIMITED, priority 2018, published 2022).
Read-outs that look alike come from different tables or passages of the source. Each block holds one molecule with its values, some of them ahead of it.

Assays:
[1] = system: sporadic PD patient fibroblasts; assay: Mitochondrial membrane potential (MMP, TMRM) in sporadic PD patient fibroblasts; assay type: cell-based; conditions: Homo sapiens, Fibroblast, 6 sporadic PD patient fibroblasts, 24 h; for EC50: read-out: MMP EC50; for activity at 0.3 µM: max response with highest dose (300 nM), read-out: MMP Top (% of vehicle treated); for activity at 60 pM: max response with lowest dose (0.06 nM), read-out: MMP Bottom (% of vehicle treated)
Procedure: (§1) Fibroblasts were cultured in DMEM (Invitrogen) and routinely subcultured every 3-5 days using trypsin to dissociate them.
Fibroblasts were cultured and plated into a Griener black 384 pClear® plate at 10000 cells per well in 50 μl of media volume. The plates are left overnight in an incubator to allow the fibroblasts to adhere to the plate surface. The following morning the Glucose based medium is replaced with 25 μl of Galactose based media. The plates were then dosed with the compounds using an ECHO® 550 liquid handling system. The wells were dosed to provide an 8-point concentration range of 0.06 nM-300 nM of compound. After dosing the wells are topped up with a further 25 μl of Galactose based medium and then left in an incubator for 24 hours. After 24 hours, the medium is removed from the wells and replaced with 25 ul phenol free Minimal essential medium with 100 nM TMRM (Sigma) and 10 μM Hoechst Stain (Sigma). The plate is returned to the incubator for another hour after which the stain medium is removed and replaced with 25 ul Phenol free MEM. The plate is then imaged using an IN Cell high content microscope (GE Healthcare) with 10 fields of view per well in 2 channels, Cy3 excitation 542 nm, emission 604-64 nm; and the DAPI excitation 350 nm, emission 450-55 nm at 37° C. with CO2. After imaging the plate is disposed of and the images are Data mined using the INCell developer Toolkit (GE Healthcare).
(§2) After the assays had been repeated in triplicate per line and compound the data was then inputted into Graph pad Prism 7 software suite where a dose response curve is generated using the default “[Agonist] vs response (three parameters)” equation.
(§3) From this EC50 values, lowest response and maximal response were taken and used to calculate the Geometric mean between the 5 different lines assessed.
The mitochondrial membrane potential was measured in fibroblasts from 6 (Table 1) or 3 (Table 2) patients with sporadic Parkinson's disease when treated with Compounds of the invention or Comparator compounds. The results are shown in Tables 1 and 2, where “Bottom”=max response with lowest dose of compound (0.06 nM) and “top”=max response with highest dose of compound (300 nM).

[2] = system: sAD and familial AD (PSEN1 mutants) patient fibroblasts; assay: Total cellular ATP levels in Alzheimer's disease patient fibroblasts; assay type: cell-based, human; conditions: 24 hour treatment at 100 nM, 21% restores to control levels
Procedure: Data shown in the Table 6 below is the mean increase in ATP levels after 24 hour treatment with compounds at 100 nM concentration.

[3] = system: sporadic PD patient fibroblasts; assay: Cellular ATP levels (ATPlite, normalised to CyQUANT DNA content) in sporadic PD patient fibroblasts; assay type: cell-based; conditions: Homo sapiens, Fibroblast, 6 sporadic PD patient fibroblasts, 24 h; for EC50: read-out: Cellular ATP levels EC50; for activity at 0.3 µM: max response with highest dose (300 nM), read-out: Cellular ATP levels Top (% of vehicle treated); for activity at 60 pM: max response with lowest dose (0.06 nM), read-out: Cellular ATP levels Bottom (% of vehicle treated)
Procedure: as §1
The ATP protocol is generally as described in Mortiboys et al, “Mitochondrial function and morphology are impaired in parkin-mutant fibroblasts”, Ann Neurol. 2008 November; 64(5):555-65. Briefly, fibroblasts were cultured as and plated into white 384 well plates with 5000 cells per well in 50 μl of media volume. The plates are left overnight in an incubator to allow the fibroblasts to adhere to the plate surface. The following morning the Glucose based medium is replaced with 25 μl of Galactose based medium. The compounds are added to the plates using a ECHO 550 liquid handling system. The wells were dosed to provide an 8-point concentration range of 0.06 nM-300 nM of compound. After dosing the wells are topped up with a further 25 μl of Galactose based medium and then left in an incubator for 24 hours. Following this incubation the medium is removed from the plate and the wells are washed twice with sterile PBS. The wells are filled with 25 μl of Sterile PBS followed by 12.5 μl of Lysis solution from the ATPlite™ Luminescence ATP detection assay system (Perkin Elmer), including 16 cell free wells to use as blank controls. The plate is then placed on a rotary shaker for 5 mins at 700 rpm. Following the shaking 12.5 μl of ATP substrate solution (Perkin Elmer) is added to each well and a further 5 min of shaking. The plate is then placed in darkness for 10 minutes prior to reading. Using a PHERAStar® plate reader, luminescence intensity is recorded. Following the ATP assay the plates are immediately assayed for DNA content in a CyQUANT® assay.
Immediately following The ATP assay DNA content is assessed with the CyQUANT® NF Cell Proliferation Assay Kit (ThermoFisher). CyQUANT® buffer is prepared immediately before the assay and is comprised of 1 ul CyQUANT® dye per ml×1 HBSS solution. 12.5 ul of CyQUANT® buffer is added to each well. Plate left in incubator for 1 hour then read on a PHERAStar® Plate reader with excitation at 497 nm and emission at 520 nm. ATP Quantification for each well is determined using the following formula: […]
as §2, §3
Cellular ATP levels were measured in fibroblasts from 6 (Table 3) or 3 (Table 4) patients with sporadic Parkinson's disease when treated with Compounds of the invention or Comparator compounds. The results are shown in Tables 3 and 4, where “Bottom”=max response with lowest dose of compound (0.06 nM) and “top”=max response with highest dose of compound (300 nM).

[4] = system: mitochondrial respiratory chain complex I; assay: Complex I assay, left striatum brain homogenate of mice dosed with or without MPTP; assay type: in vivo, mouse; conditions: left striatum mouse brain homogenate; MPTP alone; FIG. 4
Procedure: Ex vivo mice brain was homogenated in a buffer of 250 mM sucrose, 20 mM HEPES, 3 mM EDTA, pH 7.5 at 4° C. Homogenisation was carried out using a Dounce homogenizer, for cortex samples, and by repetitive passage through a 0.5 mm syringe for isolated striatum. Samples were then incubated with 30 μl of detergent from the AbCam colorimetric Complex I assay kit on ice for 20 minutes. Samples are then centrifuged at 13,000 rpm for 30 mins. Triplicate samples per condition were blocked using the kit blocking buffer on the AbCam colorimetric Complex I assay kit plate for 3 hours. Samples are then washed using the kit wash buffer 3 times before the addition of the kit assay buffer containing NADH and colorimetric dye. The assay plate is read on a plate reader in a kinetic assay programme reading 450 nm in a 30 second interval for 50 minutes.

[5] = system: dopaminergic neurons derived from sPD patients (iNeurons); assay: Activated caspase 3 immunofluorescence staining in iNeurons; assay type: cell-based, human; conditions: untreated sPD 162
Procedure: (§4) Briefly, iNPCs are plated in a 6-well plate and cultured for 2 days in DMEM/F-12 medium with Glutamax™ supplemented with 1% NEAA, 2% B27 (Gibco) and 2.5 μM of DAPT. On day 3, DAPT is removed and the medium is supplemented with 1 μM smoothened agonist (SAG) and FGF8 (75 ng/ml) for additional 10 days. Neurons are replated at this stage. Subsequently SAG and FGF8 are withdrawn and replaced with BDNF (30 ng/ml), GDNF (30 ng/ml), TGF-b3 […] and dcAMP (2 mM, Sigma) for 15 days.
Cells are plated into 96 well plates and fixed using 4% paraformaldehyde for 30 minutes. After PBS washes cells are permeabilised using 0.1% Triton™ X-100 for 10 minutes and blocked using 5% goat serum for 1 hour. Cells are incubated with primary antibodies tyrosine hydroxylase (St John's Laboratory); DAT (Abcam); Tuj (Millipore); Tom20 (BD Biosciences); activated caspase 3 (Cell Signaling); alpha synuclein (Cell Signaling); phosphorylated alpha synuclein (Millipore) at 4° C. for 16 hours. Cells are washed using PBS-Tween® and incubated with Alexa Fluor™-conjugated secondary antibodies 488 and 568 (Invitrogen) and Hoescht (Sigma) 1 μM prior to imaging. Imaging was performed using the Opera Phenix™ high content imaging system (Perkin Elmer).

[6] = system: sporadic PD patient fibroblast lines; assay: Seahorse assay (oxygen consumption, extracellular acidification rate) in sPD fibroblasts; assay type: cell-based, human; conditions: Homo sapiens, Fibroblast; concentration at which compounds were dosed in the seahorse assay; read-out: EC90 concentration
Procedure: Fibroblasts are plated into Seahorse 24 well plates with 50,000 cells per well. Cells are left to attach for 2 days. Media is changed to Seahorse DMEM media with glucose and sodium pyruvate and left to equilibrate at 37 degrees normal air CO2 for 1 hour. The plate is entered into the Seahorse machine and run on a program of mix (2 minutes), wait (3 minutes) and measure (3 minutes). After three measurements of basal respiration and ECAR; 0.5 μM oligomycin is injected after which another three measurements are taken; then 0.5 μM of FCCP is injected and three measurements taken and finally 1 μM rotenone is injected and three measurements taken. After all measurements are complete, cells are stained with 10 μM Hoescht and imaged using the InCell to count the number of cells per well for normalisation. This classical ritochondrial stress test experimental protocol allows us to calculate the basal mitochondrial respiration, ATP linked respiration (the amount which is coupled to ATP generation), the maximal and spare respiratory capacity, the non-mitochondrial respiration rate and the extracellular acidification rate which is a proxy measure of glycosolysis.

[7] = system: dopaminergic neurons derived from sPD patients (iNeurons); assay: Mitochondrial function and neuronal morphology measurements in iNeurons from sPD patients; assay type: cell-based, human; conditions: iNeurons from sPD patients; for EC50: Homo sapiens, Neuron
Procedure: as §1, §4
Cells are plated in 96 well plates; for live imaging cells are incubated for one hour at 37 degree with 80 nM tetramethlyrhodamine (TMRM), 1 μM LysoTracker® Green (Invitrogen) and Hoechst Stain solution (Sigma) at 1 μM before imaging using Opera Phenix™. Cellular ATP measurements are undertaken using ATPlite kit (Perkin Elmer) as per manufacturer's instructions. Mitochondrial reactive oxygen species generation was assessed using mitochondrial NpFR2 (probe; a kind gift from Dr Liz New, University of Sydney, Australia) at 20 μM and Hoechst stain solution at 1 μM for 30 mins at 37° C., then the dyes are removed and cells images using Opera Phenix™. Images generated from the live imaging experiments were analysed using Harmony® (Perkin Elmer software). We developed protocols in order to segment nucleus, cell boundary and processes, mitochondria, lysosomes, autophagosomes. We only analysed the z projection images collected from the z stacks.

[8] = system: dopaminergic neurons derived from sPD patients (iNeurons); assay: Dopamine ELISA in iNeurons; assay type: cell-based, human; conditions: untreated sPD 0
Procedure: as §4
Dopamine ELISA is performed using Dopamine research ELISA kit (Labor Diagnostika Nord GmbH&Co. KG) as per manufacturers instructions. Dopamine release is obtained incubating the cells at 37° C. using three different conditions at the same time per line. Medium is removed in all wells then the first well is incubated with HBSS with Ca^2+ and Mg^2+ (Gibco by Life Technologies) for 30 minutes, the second well is incubated in HBSS with Ca^2+ and Mg^2+ for 15 minutes and then 56 mM KCl (Fisher chemical) is added for another 15 minutes and the third well is incubated with HBSS without Ca^2+ and Mg^2+ (Gibco by Life Technologies) but with 2 mM EDTA for 15 min and then 56 mM KCl is added for another 15 minutes. Straight away media is collected in an eppendorf and cells are harvested using Accutase®, centrifuge at 400 g for 4 min and resuspended in 10 μl of PBS. […]

Structure (SMILES): C[C@H](CCC(=O)O)[C@H]1CC[C@H]2[C@@H]3[C@H](O)C[C@@H]4C[C@@H](O)[C@@H](F)C[C@]4(C)[C@H]3CC[C@]12C [Compound 2, 2β-fluoro-3β,7α-dihydroxy-5β-cholanic acid]
EC50 [1]: 20.8 nM | activity at 0.3 µM [1]: 112% | activity at 60 pM [1]: 107% | % increase over vehicle treated (mean increase in ATP levels) [2]: 65% | EC50 [3]: 1.08 nM | activity at 0.3 µM [3]: 113% | activity at 60 pM [3]: 79.9%

Structure (SMILES): CN1CC=C(c2ccccc2)CC1 [MPTP, 1-methyl-4-phenyl-1,2,3,6-tetrahydropyridine, reference compound]
Reduction in complex I activity compared with untreated controls [4]: 50%

Structure (SMILES): C[C@H](CCC(=O)O)[C@H]1CC[C@H]2[C@@H]3[C@H](O)C[C@@H]4C[C@H](O)C(F)(F)C[C@]4(C)[C@H]3CC[C@]12C [Compound 8, 2,2-difluoro-3α,7α-dihydroxy-5β-cholanic acid]
% increase over vehicle treated (mean increase in ATP levels) [2]: 65%

EC50 ([7]; read-out: ATP EC50): 5 nM | EC50 ([7]; read-out: MMP EC50): 7.3 nM
Structure (SMILES): C[C@H](CCC(=O)O)[C@H]1CC[C@H]2[C@@H]3[C@@H](O)C[C@@H]4C[C@H](O)CC[C@]4(C)[C@H]3CC[C@]12C [UDCA, ursodeoxycholic acid, reference compound]
Activated caspase 3 levels [5]: 143 % of level in iNeurons from Controls | EC90 [6]: 100 nM | Neuronal morphology (elongation; % controls) ([7]; untreated sPD 48): 64 % controls | ATP normalisation (% of controls) ([7]; untreated sPD 50): 82 % of controls | MMP normalisation (% of controls) ([7]; untreated sPD 52): 73 % of controls | ROS (Normalisation) (% controls) ([7]; untreated sPD 115): 110 % controls | % increase over vehicle treated (mean increase in ATP levels) [2]: 12% | Dopamine level (increase in dopamine release) [8]: No effect

Structure (SMILES): C[C@H](CCC(=O)O)[C@H]1CC[C@H]2[C@@H]3[C@H](O)C[C@@H]4C[C@H](O)C(F)=C[C@]4(C)[C@H]3CC[C@]12C [Compound H, 2-fluoro-3α,7α-dihydroxy-5β-chol-1-enic acid, reference compound]
EC50 [1]: 4.58 nM | activity at 0.3 µM [1]: 109% | activity at 60 pM [1]: 99.8% | EC50 [3]: 0.125 nM | activity at 0.3 µM [3]: 121% | activity at 60 pM [3]: 87.6%
